Measured values from patent publication US5091547A, “Phenylacetic acid derivative and process for making same” (priority 1989, dated 1992).
Where a name gives a salt, the structure may show the parent alone.

Key:
[1] = test system: ulcerous lesions in the stomach and intestine; test: Comparative ulcerogenic action, macroscopic lesion indices (Adami's criterion); type: in vivo, Female Wistar rats
Procedure: Group I: control (excipient) (n=8)
Group II: sodium salt 10 mg/kg (n=8)
Group IV: sodium salt 10 mg/kg+zinc sulphate 2.5 mg/kg (n=8) (equivalent doses).
The products were administered orally every day for four consecutive days. The animals were given no food during the 24 hours prior to the last dose.

[2] = test system: ulcers induced by absolute ethanol; test: Protective activity, ulcers induced by absolute ethanol; type: in vivo, rats
Source text: As explained previously, the compound of formula (I), which shall henceforth be referred to herein as LV-216, combines the advantage of anti-inflammatory and protective action.

[3] = acid as such; cited from earlier work

zinc compound of 2-(2,6-dichloroaniline)-phenylacetic acid [LV-216]
gastric tolerance (in words) ([1]; compared with sodium salt alone or in combination with zinc): surprisingly high degree of gastric tolerance, greater than that shown by the sodium salt administered alone or in combination with Zinc | t test of mm lesion versus control ([2]; 11 mg/kg, versus control): a (p < 0.01 versus control) | inhibition of ulcers induced by ethanol (protective action) ([2]; rats, doses of between 5 and 15 mg/kg): ≤ 80%

O=C(O)Cc1ccccc1Nc1c(Cl)cccc1Cl [sodium salt, sodium salt of 2-(2,6-dichloroaniline)-phenylacetic acid]
Macroscopic lesion index (x ± e) ([1]; oral, daily for four consecutive days, SS 10 mg/kg, LV-216 11 mg/kg, SS 10 mg/kg + zinc sulphate 2.5 mg/kg, n=8, control 0.4 ± 0.2): 4.0 ± 0.4 | t vs CONTROL (lesion index) ([1]; versus control): *** (p < 0.001) | ulcerous index versus control (in words) ([1]; versus control): statistically significant versus the control groups | mm lesion (lesion index) ([2]; LV-216 11 mg/kg, sodium salt at equimolecular dose, control 86.3 ± 9.4): 70.8 ± 8.2 mm | % inhibition of ulcers ([2]; versus control, LV-216 11 mg/kg, sodium salt at equimolecular dose): 17.9%

O=C(O)Cc1ccccc1Nc1c(Cl)cccc1Cl [2-(2,6-dichloroaniline)-phenylacetic acid]
Water solubility (in words, background) [3]: practically insoluble in water | inhibition of ulcers induced by absolute ethanol (in words) ([2]; equimolecular dose): does not inhibit the ulcers induced by absolute ethanol
